Measurements: patent publication US20210238170A1, “5,5-Difluoro- and 5-Fluoro-5-Methyl-C-Glycoside Derivatives Useful As Dual SGLT1 / SGLT2 Modulators” (Janssen Pharmaceutica NV, priority 2018, published 2021)
Like-named read-outs stand apart in the source and are kept apart here.

Tests used:
[1] = target: T1, human SGLT1 (Homo sapiens, UniProt P13866); experiment: SGLT1 in vitro assay: Na-dependent 14C-AMG uptake in CHO-K1 cells stably expressing human SGLT1; format: cell-based; conditions: for inhibition at 0.3 µM: read-out: SGLT1 % Inh @ 0.3 μM
T1 construct: expressed in transfected cells
T1 sequence (P13866 1-664): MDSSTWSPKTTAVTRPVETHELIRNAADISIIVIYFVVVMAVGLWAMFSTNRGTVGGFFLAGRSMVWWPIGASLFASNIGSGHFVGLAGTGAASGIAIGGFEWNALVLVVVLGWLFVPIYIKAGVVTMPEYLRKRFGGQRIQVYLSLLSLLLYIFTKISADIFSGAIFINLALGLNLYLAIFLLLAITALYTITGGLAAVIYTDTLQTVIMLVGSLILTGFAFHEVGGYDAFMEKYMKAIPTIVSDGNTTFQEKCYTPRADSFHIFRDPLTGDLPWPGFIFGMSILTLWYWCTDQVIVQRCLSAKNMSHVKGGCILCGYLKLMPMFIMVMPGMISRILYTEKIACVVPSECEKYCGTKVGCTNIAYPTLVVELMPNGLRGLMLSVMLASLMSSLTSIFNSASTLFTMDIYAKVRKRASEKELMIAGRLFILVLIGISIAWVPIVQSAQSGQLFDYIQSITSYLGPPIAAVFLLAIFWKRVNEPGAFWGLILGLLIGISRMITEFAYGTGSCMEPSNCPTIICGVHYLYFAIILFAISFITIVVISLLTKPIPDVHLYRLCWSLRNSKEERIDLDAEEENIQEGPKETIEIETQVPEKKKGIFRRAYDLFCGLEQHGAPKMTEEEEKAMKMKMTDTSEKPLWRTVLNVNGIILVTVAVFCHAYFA
Experimental: (§1) Biological Example 1: SGLT1 and SGLT2 In Vitro Assays
(§2) The ability of the compounds of formula (I) of the present invention to treat an SGLT-mediated condition was determined using the following procedures:
(§3) SGLT1 and SGLT2 were cloned in form of cDNA from human small intestine (Genbank M24847), and from human kidney (Genbank M95549), respectively. Subsequently, each full cDNA was subcloned into pcDNA with each construct's integrity verified through follow-on sequencing. To generate CHO-K1 cells that stably express human SGLT1 or human SGLT2, CHO-K1 cells were transfected using DMRIE-C reagent (Life Technologies, Gaithersburg, Md.). Transfected cells were then selected in the presence of 500 μg/ml of the Geneticin (G418 Cellgro Catalog No. 30234-CI)
(§4) Individual clones were then characterized using the following cell-based assay for sodium-dependent glucose transport:
(§5) Inhibition of SGLT1 and SGLT2 activity was assessed in CHO K1 cells stably expressing either human SGLT1 or SGLT2, using the SGLT specific glucose analog methyl-glucopyranoside (Sigma Catalog No. M-9376). Cells were plated (45,000 cells/well) in white wall 96-well plates (COSTAR, Cat #3903) for 24 hours in growth medium, then a final concentration of 10 mM Na-Butyrate (ALDRICH Cat #30341-0) was added. The cells were incubated for 24 hours. On the day of the assay, cells were rinsed and treated with test compounds (at concentrations of 0.001 μM to 10 μM) in assay buffer (50 mM HEPES, 20 mM Tris base, 5 mM KCl, 1 mM MgCl2, 1 mM CaCl2 and 137 mM NaCl, pH 7.4) for 10 minutes. Cells were then incubated with ^14C-a-methyl-d-glucopyranoside (AMG, Amersham Catalog No. CFB 76), using 0.07 μCi per well in 500 µM AMG final concentration. The cells were incubated for 2 hours at 37° C. with 5% CO2 and washed two times with ice-cold Phosphate Buffer Solution (CELLGRO Catalog No. 21030-CV). The cells were then solubilized by adding 60 μl of MICROSCINT™ 20 and the Na-dependent ^14C-AMG uptake was quantified by measuring radioactivity. Plates were counted in a TopCount (Packard, Meriden, Conn.)
(§6) Representative compounds of the present invention were tested according to the procedures as described in Biological Example 1 and 2 above, with results as listed in Table 5, below. Results are reported as the %-inhibition or IC50 value. Variability for the functional assay was typically within 20%.

[2] = target: T2, human SGLT2 (Homo sapiens, UniProt P31639); experiment: SGLT2 in vitro assay: Na-dependent 14C-AMG uptake in CHO-K1 cells stably expressing human SGLT2; format: cell-based; conditions: for inhibition at 0.3 µM: read-out: SGLT2 % Inh @ 0.3 μM
T2 construct: expressed in transfected cells
T2 sequence (P31639 1-672): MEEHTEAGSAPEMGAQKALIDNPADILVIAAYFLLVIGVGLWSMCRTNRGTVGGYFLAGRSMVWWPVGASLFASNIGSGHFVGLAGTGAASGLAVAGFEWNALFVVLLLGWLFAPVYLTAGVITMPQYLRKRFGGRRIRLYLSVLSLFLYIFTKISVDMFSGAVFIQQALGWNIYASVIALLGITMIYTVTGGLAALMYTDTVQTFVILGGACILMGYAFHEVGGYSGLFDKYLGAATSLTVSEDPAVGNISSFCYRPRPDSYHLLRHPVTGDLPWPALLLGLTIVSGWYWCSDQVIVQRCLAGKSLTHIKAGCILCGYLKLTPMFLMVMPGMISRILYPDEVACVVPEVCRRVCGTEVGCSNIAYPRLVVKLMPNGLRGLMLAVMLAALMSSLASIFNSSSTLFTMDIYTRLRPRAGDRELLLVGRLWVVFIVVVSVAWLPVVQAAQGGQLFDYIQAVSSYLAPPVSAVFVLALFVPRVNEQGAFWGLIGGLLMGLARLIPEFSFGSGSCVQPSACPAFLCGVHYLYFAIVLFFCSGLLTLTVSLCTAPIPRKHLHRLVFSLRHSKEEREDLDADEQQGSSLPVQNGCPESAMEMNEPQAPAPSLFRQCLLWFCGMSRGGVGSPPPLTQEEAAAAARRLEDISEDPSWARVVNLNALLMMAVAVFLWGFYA
Experimental: as §1, §2, §3, §4, §5, §6

[3] = @ 0.3 μM, CHO-K1 cells stably expressing human SGLT1, 14C-AMG uptake
[4] = CHO-K1 cells stably expressing human SGLT1, 14C-AMG uptake, compounds of formula (I) where R0 is fluoro
[5] = @ 0.3 μM, CHO-K1 cells stably expressing human SGLT2, 14C-AMG uptake
[6] = CHO-K1 cells stably expressing human SGLT2, 14C-AMG uptake, compounds of formula (I) where R0 is fluoro
[7] = 0.3 μM, CHO-K1 cells expressing human SGLT1
[8] = 0.3 μM, CHO-K1 cells expressing human SGLT2

| SMILES | inhibition at 0.3 µM [1, 3] [%] | IC50 [1, 4] [nM] | inhibition at 0.3 µM [2, 5] [%] | IC50 [2, 6] [nM] | SGLT1 % Inh @ 0.3 μM [1, 3] [%] | SGLT2 % Inh @ 0.3 μM [2, 5] [%] | other results |
| --- | --- | --- | --- | --- | --- | --- | --- |
| COc1ccc(Cc2cc([C@@H]3O[C@H](CO)C(F)(F)[C@H](O)[C@H]3O)c(OC)cc2OC)cc1 [Compound 92] |  |  |  |  | 30.2 | 81.9 |  |
| CCc1ccc(Cc2cc([C@@H]3O[C@H](CO)C(F)(F)[C@H](O)[C@H]3O)cc3c2OCC3)cc1 [Compound 58] |  |  |  |  | 36.8 | 81.9 |  |
| OC[C@H]1O[C@@H](c2cc(Cc3ccc4c(c3)CCO4)c(Cl)c3c2OCC3)[C@H](O)[C@@H](O)C1(F)F [Compound 114] |  |  |  |  | 36.8 | 80.6 |  |
| Cc1cc(OCC#N)c([C@@H]2O[C@H](CO)C(F)(F)[C@H](O)[C@H]2O)cc1Cc1cc2ccccc2s1 [Compound 40, 2-[4-(benzothiophen-2-ylmethyl)-2-[(2S,3R,4R,6R)-5,5-difluoro-3,4-dihydroxy-6-(hydroxymethyl)tetrahydropyran-2-yl]-5-methyl-phenoxy]acetonitrile] | 54 | 176 | 85.4 | 3.5 |  |  |  |
| Cc1c(Cc2ccc3c(c2)CCCO3)cc([C@@H]2O[C@H](CO)C(F)(F)[C@H](O)[C@H]2O)c2c1CCO2 [Compound 103] |  |  |  |  | 26.3 | 94.7 |  |
| COc1cc(O)c([C@@H]2O[C@H](CO)[C@@](C)(F)[C@H](O)[C@H]2O)cc1Cc1ccc2c(c1)CCCO2 [Compound 2, (2S,3R,4R,5S,6R)-2-[5-(chroman-6-ylmethyl)-2-hydroxy-4-methoxy-phenyl]-5-fluoro-6-(hydroxymethyl)-5-methyl-tetrahydropyran-3,4-diol] |  |  |  |  |  |  | inhibition at 0.3 µM [1, 7]: 31.1%; inhibition at 0.3 µM [2, 8]: 67.4% |
| COc1ccc(Cc2cc([C@@H]3O[C@H](CO)C(F)(F)[C@H](O)[C@H]3O)c(OC)cc2Cl)cc1 [Compound 87] |  |  |  |  | 8.4 | 76.0 |  |
| CCOc1cc(C)c(Cc2cc3ccccc3s2)cc1[C@@H]1O[C@H](CO)C(F)(F)[C@H](O)[C@H]1O [Compound 41] |  |  |  |  | 5.8 | 85.4 |  |
| COC(=O)N1CCc2sc(Cc3cc([C@@H]4O[C@H](CO)C(F)(F)[C@H](O)[C@H]4O)c(O)cc3Cl)cc2C1 [Compound 64] |  |  |  |  | 6.2 | 67.1 |  |
| COc1cc(Cl)c(Cc2ccc(OC(F)(F)F)cc2)cc1[C@@H]1O[C@H](CO)C(F)(F)[C@H](O)[C@H]1O [Compound 106] |  |  |  |  | 29.5 | 92.5 |  |
| Cc1c(Cc2cc3ccccc3s2)cc([C@@H]2O[C@H](CO)C(F)(F)[C@H](O)[C@H]2O)c(O)c1C [Compound 60, (2S,3R,4R,6R)-2-(5-(benzo[b]thiophen-2-ylmethyl)-2-hydroxy-3,4-dimethylphenyl)-5,5-difluoro-6-(hydroxymethyl)tetrahydro-2H-pyran-3,4-diol] | 83.4 | 88 | 91.1 | 12.2 |  |  |  |
| CCc1cc(O)c([C@@H]2O[C@H](CO)[C@@](C)(F)[C@H](O)[C@H]2O)cc1Cc1ccc(OC)cc1 [Compound 16, (2S,3R,4R,5S,6R)-2-[4-ethyl-2-hydroxy-5-[(4-methoxyphenyl)methyl]phenyl]-5-fluoro-6-(hydroxymethyl)-5-methyl-tetrahydropyran-3,4-diol] |  |  |  |  |  |  | inhibition at 0.3 µM [1, 7]: 53%; IC50 ([1]; CHO-K1 cells expressing human SGLT1, 14C-AMG uptake): 151 nM; inhibition at 0.3 µM [2, 8]: 85.5%; IC50 ([2]; CHO-K1 cells expressing human SGLT2, 14C-AMG uptake): 2 nM |
| COc1cc(OC)c([C@@H]2O[C@H](CO)C(F)(F)[C@H](O)[C@H]2O)cc1Cc1cc2c(s1)CCN(C(C)=O)C2 [Compound 77] |  |  |  |  | 22.6 | 51.4 |  |
| COc1ccc(Cc2ccc(O)c([C@@H]3O[C@H](CO)C(F)(F)[C@H](O)[C@H]3O)c2)cc1 [Compound 86] |  |  |  |  | 17.4 | 69.5 |  |

More lines, main results first:

| inhibition at 0.3 µM [1, 3] [%] | IC50 [1, 4] [nM] | inhibition at 0.3 µM [2, 5] [%] | IC50 [2, 6] [nM] | SGLT1 % Inh @ 0.3 μM [1, 3] [%] | SGLT2 % Inh @ 0.3 μM [2, 5] [%] | SMILES | other results |
| --- | --- | --- | --- | --- | --- | --- | --- |
| 52.1 | 644 | 88 | 6.2 |  |  | CCc1cc(OC)c([C@@H]2O[C@H](CO)C(F)(F)[C@H](O)[C@H]2O)cc1Cc1ccc(C2CC2)cc1 [Compound 151] |  |
|  |  |  |  | 16.4 | 87.1 | CCc1ccc(Cc2cc([C@@H]3O[C@H](CO)C(F)(F)[C@H](O)[C@H]3O)c(OC)cc2C)cc1 [Compound 129] |  |
|  |  |  |  | 31.6 | 62.3 | COc1cc(O)c([C@@H]2O[C@H](CO)C(F)(F)[C@H](O)[C@H]2O)cc1Cc1cc2c(s1)CCN(C#N)C2 [Compound 134] |  |
| 78.1 | 83 | 64.4 | 2.8 |  |  | CCc1ccc(Cc2cc([C@@H]3O[C@H](CO)C(F)(F)[C@H](O)[C@H]3O)c(O)cc2OC)cc1 [Compound 145] |  |
| 52.7 | 160 | 74.6 | 35.9 |  |  | OC[C@H]1O[C@@H](c2cc(Cc3ccc4c(c3)OCCO4)c3c(c2O)OCC3)[C@H](O)[C@@H](O)C1(F)F [Compound 187] |  |
| 54.7 | 40 | 73.2 | 0.7 |  |  | COc1cc(Cl)c(Cc2ccc(C)s2)cc1[C@@H]1O[C@H](CO)C(F)(F)[C@H](O)[C@H]1O [Compound 165] |  |
|  |  |  |  | 25.4 | 65.3 | COc1c([C@@H]2O[C@H](CO)C(F)(F)[C@H](O)[C@H]2O)cc(Cc2ccc(N(C)C)cc2)c2c1CCO2 [Compound 185] |  |
| 68.7 | 138 | 90.9 | 2.1 |  |  | OC[C@H]1O[C@@H](c2cc(Cc3ccc(C4CC4)cc3)c(Cl)cc2O)[C@H](O)[C@@H](O)C1(F)F [Compound 136] |  |
